Experimental data: ChEMBL document CHEMBL3046518, “Phytotoxic Compounds Cochlioquinones Are Inhibitors of Mitochondrial NADH-Ubiquinone Reductase” (J Pestic Sci, 1996)
Blank lines part the entries; values can stand above or below the molecule they belong to. Activity calls are given as the source filed them. The rule behind the calls is not given here.

Columns and labels:
[1] = Inhibition of Bos taurus (bovine) heart mitochondrial […] activity assessed per mg protein
[2] = Inhibition of Bos taurus (bovine) heart mitochondrial electron transport protein complex 4 assessed per mg protein
[3] = Inhibition of Solanum tuberosum (potato) tuber proton-pump NADH dehydrogenase activity assessed per mg protein
Solanum tuberosum [4] = assay: Inhibition of Solanum tuberosum (potato) tuber electron transport protein complex 2 activity
[5] = Inhibition of Bos taurus (bovine) heart mitochondrial electron transport protein complex 2 assessed per mg protein
Solanum tuberosum [6] = assay: Inhibition of Solanum tuberosum (potato) tuber succinate oxidase activity at 3600 nmol/mg protein
[7] = Inhibition of Bos taurus (bovine) heart mitochondrial electron transport protein complex 2/3 assessed per mg protein
[8] = Inhibition of Bos taurus (bovine) heart mitochondrial electron transport protein complex 3 assessed per mg protein
Solanum tuberosum [9] = assay: Inhibition of Solanum tuberosum (potato) tuber electron transport protein complex 4 activity
Solanum tuberosum [10] = assay: Inhibition of Solanum tuberosum (potato) tuber electron transport protein complex 3 activity
[11] = Inhibition of Bos taurus (bovine) heart mitochondrial electron transport protein complex 1 assessed per mg protein

Compound: CC[C@H](C)[C@@H](OC(C)=O)[C@@H](C)C1=CC(=O)C2=C(O[C@]3(C)CC[C@H]4O[C@@H](C(C)(C)O)CC[C@]4(C)[C@H]3[C@@H]2O)C1=O [COCHLIOQUINONE A]
IC50 [1]: 115 nmol

IC50 [2]: > 3600 nmol
IC50 [3]: 3000 nmol
inhibition (Solanum tuberosum [4]): inactive
IC50 [5]: > 3600 nmol
inhibition (Solanum tuberosum [6]): inactive
IC50 [7]: > 3600 nmol
IC50 [8]: > 3600 nmol
inhibition (Solanum tuberosum [9]): inactive
inhibition (Solanum tuberosum [10]): inactive
IC50 [1]: 83 nmol
Compound: CC[C@H](C)C(=O)[C@@H](C)C1=CC(=O)C2=C(O[C@]3(C)CC[C@H]4O[C@@H](C(C)(C)O)CC[C@]4(C)[C@H]3C2)C1=O [COCHLIOQUINONE B]
IC50 [11]: 370 nmol

Compound: CC[C@H](C)[C@@H](OC(C)=O)[C@@H](C)c1cc(O)c2c(c1O)O[C@]1(C)CC[C@H]3O[C@@H](C(C)(C)O)CC[C@]3(C)[C@H]1C2=O [ISOCOCHLIOQUINONE A]
IC50 [1]: 56 nmol

Compound: C/C=C(\C)[C@@H](OC(C)=O)[C@@H](C)C1=CC(=O)C2=C(O[C@]3(C)CC[C@H]4O[C@@H](C(C)(C)O)CC[C@]4(C)[C@H]3[C@@H]2O)C1=O [STEMPHONE]
IC50 [1]: 160 nmol
